The values below come from PubChem BioAssay (NCI).

Structures are written as SMILES.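 Grown in 96-well plates, cells were treated for 48 hours with each compound at five concentrations. Insufficient inhibition: endpoint recorded as highest concentration tested. TGI denotes the concentration required for complete inhibition of growth.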

Test systems include IGROV1 ovarian; HOP-92 NSCLC; UO-31 renal; NCI-H226 lung; M14 melanoma; NCI/ADR-RES ovarian; SK-MEL-28 melanoma; SNB-75 CNS; SF-539 CNS; HOP-62 NSCLC; RXF 393 renal; TK-10 renal; SK-MEL-5 melanoma; MCF7 breast; HL-60(TB) leukemia; UACC-62 melanoma; OVCAR-3 ovarian; COLO 205 colon.
What all share (assay): NCI tumour cell line growth inhibition, 48 h

`CCN(CC)CCCNc1ccc([N+](=O)[O-])c2nc3ccccc3c(N)c12`: the TGI in the assay on IGROV1 ovarian is 2.6 µM; in the assay with HOP-92 NSCLC it was over 10 µM; with UO-31 renal, over 10 µM; in the assay with NCI-H226 lung it was over 10 µM; in the assay on M14 melanoma, 2.43 µM; with NCI/ADR-RES ovarian, 2.65 µM. Further, the TGI with SK-MEL-28 melanoma was over 10 µM; in the assay on SNB-75 CNS, 2.42 µM; in the assay with SF-539 CNS it was 1.88 µM; in the assay on HOP-62 NSCLC, over 10 µM; in the assay with RXF 393 renal, 1.52 µM; with TK-10 renal, over 10 µM. For the same compound, the TGI in the assay on SK-MEL-5 melanoma is 1.53 µM; in the assay with MCF7 breast it was 2.24 µM; in the assay on HL-60(TB) leukemia, 2.92 µM; in the assay with UACC-62 melanoma, over 10 µM; in the assay on OVCAR-3 ovarian it was 8.75 µM.

For the compound `NCCCN(CCCCN(CCCN)Cc1ccccc1)Cc1ccccc1`, the TGI in the assay on IGROV1 ovarian is 37.1 µM; in the assay with COLO 205 colon, over 100 µM; with UO-31 renal, over 100 µM; with NCI-H226 lung, over 100 µM; with M14 melanoma, over 100 µM; in the assay on NCI/ADR-RES ovarian, over 100 µM. In addition, the TGI in the assay on SK-MEL-28 melanoma was over 100 µM; in the assay with SNB-75 CNS it was 37.6 µM; with SF-539 CNS, over 100 µM; in the assay with RXF 393 renal it was over 100 µM; in the assay with TK-10 renal it was over 100 µM; with SK-MEL-5 melanoma, over 100 µM. Moreover, the values for the TGI with MCF7 breast, with HL-60(TB) leukemia and in the assay on UACC-62 melanoma were 60.5 µM, over 100 µM and over 100 µM, respectively.

`COC(=O)C1(Cc2ccccc2)Cc2ccccc2C1O` (stereo unspecified): the TGI in the assay with IGROV1 ovarian, in the assay on COLO 205 colon, in the assay with UO-31 renal, in the assay on NCI-H226 lung, in the assay with NCI/ADR-RES ovarian and with SK-MEL-28 melanoma was over 100 µM each time. For the same compound, the TGI in the assay on SNB-75 CNS, in the assay with SF-539 CNS, in the assay with HOP-62 NSCLC, with RXF 393 renal, in the assay with TK-10 renal and in the assay on SK-MEL-5 melanoma was over 100 µM throughout. Moreover, the TGI in the assay with MCF7 breast, in the assay on HL-60(TB) leukemia, with UACC-62 melanoma and in the assay on OVCAR-3 ovarian was over 100 µM in each case.

As for `CCS1=C2C(=O)CC(C)(C)CC2=Nc2ccccc21` (stereo unspecified), the TGI with IGROV1 ovarian, in the assay with HOP-92 NSCLC, with COLO 205 colon, in the assay on UO-31 renal, with NCI-H226 lung and in the assay on M14 melanoma was over 100 µM in each case. The TGI with NCI/ADR-RES ovarian, in the assay on SK-MEL-28 melanoma, with SNB-75 CNS, in the assay with HOP-62 NSCLC, in the assay with RXF 393 renal and in the assay on TK-10 renal was over 100 µM in each case. The TGI in the assay with SK-MEL-5 melanoma, in the assay on MCF7 breast, in the assay on HL-60(TB) leukemia, with UACC-62 melanoma and in the assay with OVCAR-3 ovarian was over 100 µM throughout.

In the case of `CCOC(=O)c1c(NC(=S)Nc2ccccc2)sc2c1CCN(C)C2`, the TGI with IGROV1 ovarian, in the assay with COLO 205 colon, in the assay with UO-31 renal, with NCI-H226 lung, with M14 melanoma and in the assay on NCI/ADR-RES ovarian was over 100 µM each time. For the same compound, the TGI in the assay on SF-539 CNS, in the assay on HOP-62 NSCLC, in the assay on RXF 393 renal, in the assay on TK-10 renal, in the assay on SK-MEL-5 melanoma and with MCF7 breast was over 100 µM each time. For the same compound, the TGI with HL-60(TB) leukemia, in the assay on UACC-62 melanoma and with OVCAR-3 ovarian was over 100 µM in each case.

As to `O=C(NCCCCCCCCNC(=O)Nc1cccc2ccccc12)Nc1cccc2ccccc12`, the TGI was over 100 µM in the assay on IGROV1 ovarian; 36 µM in the assay with HOP-92 NSCLC; over 100 µM with COLO 205 colon; 47.5 µM with UO-31 renal; over 100 µM in the assay on M14 melanoma; over 100 µM in the assay on NCI/ADR-RES ovarian. In addition, the TGI with SK-MEL-28 melanoma was over 100 µM; in the assay on SNB-75 CNS, over 100 µM; in the assay with SF-539 CNS, 24.6 µM; in the assay with HOP-62 NSCLC, 50.6 µM; with RXF 393 renal, 67.6 µM; in the assay on TK-10 renal, over 100 µM. For the same compound, the TGI in the assay on SK-MEL-5 melanoma, in the assay with MCF7 breast, in the assay on HL-60(TB) leukemia, in the assay on UACC-62 melanoma and in the assay with OVCAR-3 ovarian was over 100 µM throughout.

With `Nc1ccc(Oc2ccc(C34CC5CC(C3)CC(c3ccc(Oc6ccc(N)cc6C(F)(F)F)cc3)(C5)C4)cc2)c(C(F)(F)F)c1`, the TGI in the assay on IGROV1 ovarian was 37.9 µM; with COLO 205 colon, 37.1 µM; with UO-31 renal, over 100 µM; in the assay on NCI-H226 lung, 35.7 µM; with M14 melanoma it was 33.4 µM; in the assay with NCI/ADR-RES ovarian, 54.9 µM. In addition, the TGI is over 100 µM in the assay with SK-MEL-28 melanoma; 44.9 µM with HOP-62 NSCLC; 25.1 µM in the assay with RXF 393 renal; 31.1 µM with TK-10 renal; 39.9 µM in the assay with SK-MEL-5 melanoma; 33.8 µM with MCF7 breast. For the same compound, the TGI is over 100 µM with HL-60(TB) leukemia, 62.3 µM in the assay with UACC-62 melanoma and 37.7 µM in the assay with OVCAR-3 ovarian.

`Cc1cc(C)c(/C=C2\C(=O)Nc3ccccc32)[nH]1`: the TGI with HOP-92 NSCLC, with COLO 205 colon, with UO-31 renal, in the assay with NCI-H226 lung, in the assay on M14 melanoma and in the assay with NCI/ADR-RES ovarian was over 100 µM each time. Also, the TGI with SK-MEL-28 melanoma, in the assay on SNB-75 CNS, in the assay on SF-539 CNS, in the assay on HOP-62 NSCLC, in the assay on RXF 393 renal and in the assay on TK-10 renal was over 100 µM throughout. The TGI with SK-MEL-5 melanoma was over 100 µM; in the assay on MCF7 breast it was over 100 µM; with HL-60(TB) leukemia, over 34.1 µM; in the assay with UACC-62 melanoma, over 100 µM; with OVCAR-3 ovarian it was over 100 µM.

For `Cc1cccc(N=Nc2c(C)nn(C(=O)CC(=O)Nc3ccc(Cl)cc3)c2C)c1`, the TGI in the assay with HOP-92 NSCLC was 79.6 µM; in the assay on COLO 205 colon, over 100 µM; in the assay with UO-31 renal, over 100 µM; with NCI-H226 lung, over 100 µM; with M14 melanoma, over 100 µM; with NCI/ADR-RES ovarian, over 100 µM. Besides, the TGI in the assay on SK-MEL-28 melanoma is over 100 µM; with SNB-75 CNS, 95.9 µM; in the assay with SF-539 CNS, over 100 µM; in the assay with HOP-62 NSCLC, over 100 µM; in the assay on RXF 393 renal, over 100 µM; in the assay on TK-10 renal, over 100 µM. Besides, the TGI in the assay with SK-MEL-5 melanoma, with MCF7 breast, with HL-60(TB) leukemia, in the assay with UACC-62 melanoma and in the assay with OVCAR-3 ovarian was over 100 µM each time.
